{"source": "patent US20260008770A1", "about": "“CBL-B INHIBITORS AND METHODS OF USES THEREOF” (Insilico Medicine IP Limited, priority 2022, published 2026)", "biological_target": "Cbl-b protein (CBL-B, GST-Tag) (Homo sapiens (Human), UniProt Q13191)", "sequence (Q13191 whole entry)": "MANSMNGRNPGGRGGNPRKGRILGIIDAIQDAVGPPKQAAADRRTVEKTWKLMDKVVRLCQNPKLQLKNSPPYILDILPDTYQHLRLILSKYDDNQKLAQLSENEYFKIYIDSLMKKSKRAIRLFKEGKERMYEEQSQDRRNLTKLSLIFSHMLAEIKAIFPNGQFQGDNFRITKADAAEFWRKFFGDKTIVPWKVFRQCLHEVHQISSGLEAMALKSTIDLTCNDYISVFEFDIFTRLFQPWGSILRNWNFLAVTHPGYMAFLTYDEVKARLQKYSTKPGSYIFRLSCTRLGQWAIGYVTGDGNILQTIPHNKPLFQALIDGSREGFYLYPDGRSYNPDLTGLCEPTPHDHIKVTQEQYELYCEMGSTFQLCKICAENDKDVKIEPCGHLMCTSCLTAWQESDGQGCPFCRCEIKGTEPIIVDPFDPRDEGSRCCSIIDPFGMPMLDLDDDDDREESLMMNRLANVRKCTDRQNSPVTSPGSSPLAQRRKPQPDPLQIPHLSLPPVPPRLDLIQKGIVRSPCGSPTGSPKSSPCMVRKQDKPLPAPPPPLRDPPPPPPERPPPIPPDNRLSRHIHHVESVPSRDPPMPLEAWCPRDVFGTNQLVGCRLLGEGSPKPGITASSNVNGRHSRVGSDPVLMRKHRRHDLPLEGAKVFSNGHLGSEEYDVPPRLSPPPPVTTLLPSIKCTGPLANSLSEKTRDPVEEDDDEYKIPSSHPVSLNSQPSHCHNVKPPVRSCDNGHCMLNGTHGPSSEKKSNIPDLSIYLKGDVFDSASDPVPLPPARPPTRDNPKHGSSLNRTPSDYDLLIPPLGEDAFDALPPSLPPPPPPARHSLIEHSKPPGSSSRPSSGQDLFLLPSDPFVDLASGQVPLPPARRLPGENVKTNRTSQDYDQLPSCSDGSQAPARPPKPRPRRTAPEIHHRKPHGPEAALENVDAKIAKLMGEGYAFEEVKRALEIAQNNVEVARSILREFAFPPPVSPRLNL", "test": "HTRF based binding assay, affinity to Cbl-b protein", "key": {"[1]": {"details": "HTRF binding, CBL-B (GST-Tag), fluorescence labeled Cbl-b binding probe"}}, "note": "Read-outs that look alike come from different tables or passages of the source."}
{"smiles": "C[C@H]1CCCN(Cc2cc(C(F)(F)F)c3ncn(-c4cc([C@]5(c6nncn6C)C[C@@H](C)C5)ccn4)c(=O)c3c2)C1", "note": "[Example 78]", "values": [{"measurement": "IC50", "setting": "[1]", "value": "< 20", "unit": "nM"}]}
{"smiles": "C[C@@H]1CN(Cc2cc(C(F)(F)F)c3ncn(-c4cc([C@]5(c6nncn6C)C[C@@H](C)C5)cc(OCF)n4)c(=O)c3c2)CCC1F", "note": "(stereo partly shown) [Example 106]", "values": [{"measurement": "IC50", "setting": "[1]", "value": "< 20", "unit": "nM"}]}
{"smiles": "C[C@H]1CCCN(Cc2cc(C(F)(F)F)c3cn(-c4cccc(C5(c6nncn6C)CC(CC#N)C5)c4)nc3c2)C1", "note": "(stereo partly shown) [Example 90]", "values": [{"measurement": "IC50", "setting": "[1]", "value": "< 20", "unit": "nM"}]}
{"smiles": "C[C@H]1CCCN(Cc2cc(C(F)(F)F)c3ncn(-c4cc(C5(c6nncn6C)CC6(CC6)C5)ccn4)c(=O)c3c2)C1", "note": "[Example 118]", "values": [{"measurement": "IC50", "value": "20 to 50", "unit": "nM"}]}
{"smiles": "C[C@H]1CCCN(Cc2cc3c(=O)n(-c4cc([C@]5(c6nncn6C)C[C@@H](C)C5)cc(OCF)n4)cnc3cc2F)C1", "note": "[Example 100]", "values": [{"measurement": "IC50", "setting": "[1]", "value": "< 20", "unit": "nM"}]}
{"smiles": "C[C@H]1CCCN(Cc2cc(C(F)(F)F)c3cnn(-c4cc([C@]5(c6nncn6C)C[C@@H](C)C5)ccn4)c(=O)c3c2)C1", "note": "(single isomer, unassigned) [Example 55]", "values": [{"measurement": "IC50", "value": "500 to 1000", "unit": "nM"}]}
{"smiles": "CC1CC(c2cccc(-n3[nH]c4c(C(F)(F)F)cc(CN5CCC[C@H](C)C5)cc4c3=O)c2)(c2nncn2C)C1", "note": "(stereo partly shown) [Example 73]", "values": [{"measurement": "IC50", "setting": "[1]", "value": "> 1000", "unit": "nM"}]}
{"smiles": "CC1CC(c2cc(CO)cc(-n3cc4c(C(F)(F)F)cc(CN5CCC[C@H](C)C5)cc4n3)c2)(c2nncn2C)C1", "note": "(stereo partly shown) [Example 60]", "values": [{"measurement": "IC50", "value": "50 to 500", "unit": "nM"}]}
{"smiles": "C#CC1CC(c2cccc(-n3cc4c(C(F)(F)F)cc(CN5CCC[C@H](C)C5)cc4n3)c2)(c2nncn2C)C1", "note": "(stereo partly shown) [Example 32]", "values": [{"measurement": "IC50", "setting": "[1]", "value": "< 20", "unit": "nM"}]}
{"smiles": "CC1CC(c2cccc(-n3[nH]c(=O)c4c(C(F)(F)F)cc(CN5CCC[C@H](C)C5)cc4c3=O)c2)(c2nncn2C)C1", "note": "(stereo partly shown) [Example 81]", "values": [{"measurement": "IC50", "value": "50 to 500", "unit": "nM"}]}
{"smiles": "Cn1cnnc1[C@]1(c2ccnc(-n3ncc4c(C(F)(F)F)cc(CN5CCOC6(CCC6)C5)cc4c3=O)c2)C[C@H](C)C1", "note": "[Example 39]", "values": [{"measurement": "IC50", "value": "500 to 1000", "unit": "nM"}]}
{"smiles": "Cn1cnnc1[C@]1(c2cccc(-n3cc4c(C(F)(F)F)cc(CN5CCC[C@H](OC(F)F)C5)cc4n3)c2)C[C@H](C)C1", "note": "[Example 74]", "values": [{"measurement": "IC50", "value": "50 to 500", "unit": "nM"}]}
{"smiles": "CC1CC(c2cccc(N3CCc4c(cc(CN5CC[C@H](F)C5)cc4C(F)(F)F)C3=O)c2)(c2nncn2C)C1", "note": "(stereo partly drawn) [Example 1, (S)-7-((3-fluoropyrrolidin-1-yl)methyl)-2-(3-(3-methyl-1-(4-methyl-4H-1,2,4-triazol-3-yl)cyclobutyl)phenyl)-5-(trifluoromethyl)-3,4-dihydroisoquinolin-1(2H)-one]", "values": [{"measurement": "IC50", "value": "50 to 500", "unit": "nM"}]}
{"smiles": "C[C@H]1CCCN(Cc2cc(C(F)(F)F)c3cnn(-c4cccc(C5(Cc6nncn6C)COC5)c4)c(=O)c3c2)C1", "note": "[Example 13]", "values": [{"measurement": "IC50", "value": "500 to 1000", "unit": "nM"}]}
{"smiles": "C[C@H]1CCCN(Cc2cc3c(=O)n(-c4cc([C@]5(c6nncn6C)C[C@@H](C)C5)cc(OCF)n4)cnc3cn2)C1", "note": "[Example 99]", "values": [{"measurement": "IC50", "value": "< 20", "unit": "nM"}]}
{"smiles": "C[C@H]1CCCN(Cc2cc(C(F)(F)F)c3cnn(-c4cccc(C5(c6nncn6C)CC(F)(F)C5)c4)c(=O)c3c2)C1", "note": "[Example 83]", "values": [{"measurement": "IC50", "value": "50 to 500", "unit": "nM"}]}
{"smiles": "C[C@H]1CCCN(Cc2cc(C(F)(F)F)c3cn(-c4cc(C5(Cc6nncn6C)COC5)cc5c4OCC5)nc3c2)C1", "note": "[Example 75]", "values": [{"measurement": "IC50", "setting": "[1]", "value": "< 20", "unit": "nM"}]}
{"smiles": "CC1CC(c2cc(OC(F)F)nc(-n3cnc4c(C(F)(F)F)cc(CN5CCC[C@H](C)C5)cc4c3=O)c2)(c2nncn2C)C1", "note": "(stereo partly shown) [Example 117]", "values": [{"measurement": "IC50", "setting": "[1]", "value": "< 20", "unit": "nM"}]}
{"smiles": "C[C@H]1CCCN(Cc2cc(C(F)(F)F)c3ncn(-c4cc([C@]5(c6nncn6C(F)F)C[C@@H](C)C5)ccn4)c(=O)c3c2)C1", "note": "[Example 48]", "values": [{"measurement": "IC50", "setting": "[1]", "value": "< 20", "unit": "nM"}]}
{"smiles": "COCC1CC(c2cccc(-n3cnc4c(C(F)(F)F)cc(CN5CCC[C@H](C)C5)cc4c3=O)c2)(c2nncn2C)C1", "note": "(stereo partly shown) [Example 76]", "values": [{"measurement": "IC50", "value": "50 to 500", "unit": "nM"}]}
{"smiles": "C[C@H]1CCCN(Cc2cc(C(F)(F)F)c3sc(-c4cccc(C5(Cc6nncn6C)COC5)c4)nc3c2)C1", "note": "[Example 16]", "values": [{"measurement": "IC50", "setting": "[1]", "value": "< 20", "unit": "nM"}]}
{"smiles": "Cn1cnnc1[C@]1(c2cc(OCF)nc(-n3cnc4c(C(F)(F)F)cc(CN5CCC[C@H](F)C5)cc4c3=O)c2)C[C@H](C)C1", "note": "[Example 102]", "values": [{"measurement": "IC50", "setting": "[1]", "value": "< 20", "unit": "nM"}]}
{"smiles": "C[C@H]1CCCN(Cc2cc(C(=O)Nc3cccc([C@]4(c5nncn5C)C[C@H](C)C4)c3)c(F)c(C(F)(F)F)c2)C1", "note": "[Example 29]", "values": [{"measurement": "IC50", "setting": "[1]", "value": "< 20", "unit": "nM"}]}
{"smiles": "C#Cc1cc(-n2cc3c(C(F)(F)F)cc(CN4CCC[C@H](C)C4)cc3n2)cc(C2(c3nncn3C)CC(C)C2)c1", "note": "(stereo partly shown) [Example 51]", "values": [{"measurement": "IC50", "value": "50 to 500", "unit": "nM"}]}
{"smiles": "C=Cc1cc(C2(c3nncn3C)CC(C)C2)cc(-n2cnc3c(C(F)(F)F)cc(CN4CCC[C@H](C)C4)cc3c2=O)n1", "note": "(stereo partly shown) [Example 49]", "values": [{"measurement": "IC50", "setting": "[1]", "value": "< 20", "unit": "nM"}]}
{"smiles": "C[C@H]1CCCN(Cc2cc(C(F)(F)F)c3cn(-c4cccc(C5(c6nncn6C)CC(F)(F)C5)c4)nc3c2)C1", "note": "[Example 87]", "values": [{"measurement": "IC50", "value": "20 to 50", "unit": "nM"}]}
{"smiles": "CC1CC(c2ccnc(-n3cnc4c(C(F)(F)F)c(CN5CCC[C@H](C)C5)[nH]c4c3=O)c2)(c2nncn2C)C1", "note": "(stereo partly shown) [Example 46]", "values": [{"measurement": "IC50", "value": "50 to 500", "unit": "nM"}]}
{"smiles": "Cn1cnnc1[C@]1(c2ccnc(-n3ncc4c(C(F)(F)F)cc(CN5CCCC6(CC6)C5)cc4c3=O)c2)C[C@H](C)C1", "note": "[Example 37]", "values": [{"measurement": "IC50", "value": "50 to 500", "unit": "nM"}]}
{"smiles": "CC1CC(c2cncc(-n3ncc4c(C(F)(F)F)cc(CN5CCC[C@H](C)C5)cc4c3=O)c2)(c2nncn2C)C1", "note": "(stereo partly shown) [Example 77]", "values": [{"measurement": "IC50", "setting": "[1]", "value": "< 20", "unit": "nM"}]}
{"smiles": "CC1CC(c2cccc(-n3cc(C(F)(F)F)c4ccc(CN5CCC[C@H](C)C5)cc4c3=O)c2)(c2nncn2C)C1", "note": "(stereo partly shown) [Example 12]", "values": [{"measurement": "IC50", "setting": "[1]", "value": "< 20", "unit": "nM"}]}
{"smiles": "CC1CN(Cc2cc(C(F)(F)F)c3ncn(-c4cc([C@]5(c6nncn6C)C[C@@H](C)C5)ccn4)c(=O)c3c2)CCC1(F)F", "note": "(stereo partly shown) [Example 34]", "values": [{"measurement": "IC50", "value": "20 to 50", "unit": "nM"}]}
{"smiles": "CC1CC(c2cccc(-c3nc4cc(CN5CCO[C@H](C)C5)cc(C(F)(F)F)c4s3)c2)(c2nncn2C)C1", "note": "(stereo partly shown) [Example 11]", "values": [{"measurement": "IC50", "value": "50 to 500", "unit": "nM"}]}
{"smiles": "C[C@H]1CCCN(Cc2cc(C(F)(F)F)c3cnn(-c4cc([C@]5(c6nncn6C)C[C@H](C)C5)ccn4)c(=O)c3c2)C1", "note": "[Example 65]", "values": [{"measurement": "IC50", "value": "500 to 1000", "unit": "nM"}]}
{"smiles": "C[C@H]1CCCN(Cc2cc(C(=O)Nc3cccc([C@]4(c5nncn5C)C[C@@H](C)C4)c3)c(F)c(C(F)(F)F)c2)C1", "note": "[Example 28]", "values": [{"measurement": "IC50", "setting": "[1]", "value": "< 20", "unit": "nM"}]}
{"smiles": "Cc1cc(C2(c3nncn3C)CC(C)C2)cc(-n2cnc3c(C(F)(F)F)cc(CN4CCC[C@H](C)C4)cc3c2=O)n1", "note": "(stereo partly shown) [Example 45]", "values": [{"measurement": "IC50", "value": "50 to 500", "unit": "nM"}]}
{"smiles": "CC1CC(c2cncc(-n3cc4c(C(F)(F)F)cc(CN5CCC[C@H](C)C5)cc4n3)c2)(c2nncn2C)C1", "note": "(stereo partly shown) [Example 91]", "values": [{"measurement": "IC50", "value": "20 to 50", "unit": "nM"}]}
{"smiles": "C#C[C@H]1CCCN(Cc2cc(C(F)(F)F)c3cn(-c4cccc(C5(Cc6nncn6C)COC5)c4)nc3c2)C1", "note": "[Example 69]", "values": [{"measurement": "IC50", "setting": "[1]", "value": "< 20", "unit": "nM"}]}
{"smiles": "C[C@H]1CCCN(Cc2cc(C(F)(F)F)c3ncn(-c4cc(C5(Cc6nncn6C)COC5)ccn4)c(=O)c3c2)C1", "note": "[Example 35]", "values": [{"measurement": "IC50", "value": "50 to 500", "unit": "nM"}]}
{"smiles": "C[C@H]1CCCN(Cc2cc(C(F)(F)F)c3cn(-c4cccc(C5(C(F)c6nncn6C)COC5)c4)nc3c2)C1", "note": "(stereo partly shown) [Example 57]", "values": [{"measurement": "IC50", "setting": "[1]", "value": "< 20", "unit": "nM"}]}
{"smiles": "C[C@H]1CCCN(Cc2ccc3ncn(-c4cc([C@]5(c6nncn6C(F)F)C[C@@H](C)C5)cc(OCF)n4)c(=O)c3c2)C1", "note": "[Example 124]", "values": [{"measurement": "IC50", "setting": "[1]", "value": "< 20", "unit": "nM"}]}
{"smiles": "Cn1cnnc1[C@]1(c2ccnc(-n3cnc4c(C(F)(F)F)cc(CN5CCC6(CCO6)C5)cc4c3=O)c2)C[C@H](C)C1", "note": "(stereo partly shown) [Example 120]", "values": [{"measurement": "IC50", "value": "500 to 1000", "unit": "nM"}]}
{"smiles": "CC(c1ccc2ncn(-c3cc([C@]4(c5nncn5C)C[C@@H](C)C4)cc(OCF)n3)c(=O)c2c1)N1CCC[C@H](C)C1", "note": "(stereo partly shown) [Example 95]", "values": [{"measurement": "IC50", "setting": "[1]", "value": "< 20", "unit": "nM"}]}
{"smiles": "C[C@@H]1CN(Cc2ccc3ncn(-c4cc([C@]5(c6nncn6C)C[C@@H](C)C5)cc(OCF)n4)c(=O)c3c2)CCC1F", "note": "(stereo partly shown) [Example 123]", "values": [{"measurement": "IC50", "setting": "[1]", "value": "< 20", "unit": "nM"}]}
